Molecules are shown by their SMILES.

A short description of assay [1]: Induction of FEV1 in COPD patient at 18 ug/kg administered as single dose. It counts as functional, Homo sapiens. The conditions noted are these: dose 18 µg/kg.
The nature of assay [2]: Inhibition of guinea-pig platelet derived PDE3. Details: species or system Cavia porcellus.
A short description of assay [3]: Inhibition of guinea-pig neutrophil derived PDE4. Details: species or system Cavia porcellus.
Assay [4] deals with T1, Phosphodiesterase 4 (Homo sapiens, UniProt P27815+Q08499+Q07343+Q08493). Description: Inhibition of PDE4 (unknown origin). The class given is protein assay.
The target in assay [5] is T2, 3',5'-cyclic-AMP phosphodiesterase 4B (Homo sapiens, UniProt Q07343). Description: Inhibition of recombinant N-terminal GST-tagged full length human PDE4B1 expressed in baculovirus infected Sf9 cells […] as substrate by HPLC-MS method.
T2 sequence (Q07343 whole entry): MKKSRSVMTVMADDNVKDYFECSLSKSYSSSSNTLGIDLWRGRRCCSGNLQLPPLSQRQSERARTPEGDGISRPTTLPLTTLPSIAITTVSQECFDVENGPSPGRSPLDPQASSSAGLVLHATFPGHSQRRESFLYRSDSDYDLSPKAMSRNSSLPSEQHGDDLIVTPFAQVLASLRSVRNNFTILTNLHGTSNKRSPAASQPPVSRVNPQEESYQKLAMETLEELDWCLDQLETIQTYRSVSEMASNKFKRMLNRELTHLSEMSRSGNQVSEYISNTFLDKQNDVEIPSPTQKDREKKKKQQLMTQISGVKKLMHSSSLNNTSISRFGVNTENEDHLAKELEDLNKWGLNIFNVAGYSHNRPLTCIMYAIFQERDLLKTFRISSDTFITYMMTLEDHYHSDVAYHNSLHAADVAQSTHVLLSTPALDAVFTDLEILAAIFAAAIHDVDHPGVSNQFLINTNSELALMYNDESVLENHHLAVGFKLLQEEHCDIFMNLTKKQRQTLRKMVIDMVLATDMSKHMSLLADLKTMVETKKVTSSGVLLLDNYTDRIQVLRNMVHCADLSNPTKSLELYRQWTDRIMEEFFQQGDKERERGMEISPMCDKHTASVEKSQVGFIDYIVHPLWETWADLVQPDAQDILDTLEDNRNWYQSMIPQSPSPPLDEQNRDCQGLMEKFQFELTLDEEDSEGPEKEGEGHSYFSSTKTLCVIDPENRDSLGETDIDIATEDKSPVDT
For assay [6], the target named is T2, 3',5'-cyclic-AMP phosphodiesterase 4B. Description: Inhibition of recombinant human PDE4B expressed in Sf9 cells by IMAP phosphodiesterase assay.
Assay [7] shares this target. Description: Inhibition of N-terminal GST tagged full length human PDE4B2 expressed in baculovirus infected Sf9 cell expression system using cAMP as substrate incubated for 60 mins by time-resolved fluorescence competitive immunoassay.
Assay [8] concerns the target 3',5'-cyclic-AMP phosphodiesterase 4C (Homo sapiens, UniProt Q08493). Description: Inhibition of N-terminal GST tagged full length human PDE4C1 expressed in baculovirus infected Sf9 cell expression system using cAMP as substrate incubated for 60 mins by time-resolved fluorescence competitive immunoassay.
Assay [9] addresses T2, 3',5'-cyclic-AMP phosphodiesterase 4B. Description: Inhibition of PDE4B (unknown origin) at 2 uM relative to control.
The target in assay [10] is High affinity 3',5'-cyclic-AMP phosphodiesterase 7A (Homo sapiens, UniProt Q13946). Description: Inhibition of human PDE7A at 2 uM relative to control.
Sequence of High affinity 3',5'-cyclic-AMP phosphodiesterase 7A (Q13946 whole entry): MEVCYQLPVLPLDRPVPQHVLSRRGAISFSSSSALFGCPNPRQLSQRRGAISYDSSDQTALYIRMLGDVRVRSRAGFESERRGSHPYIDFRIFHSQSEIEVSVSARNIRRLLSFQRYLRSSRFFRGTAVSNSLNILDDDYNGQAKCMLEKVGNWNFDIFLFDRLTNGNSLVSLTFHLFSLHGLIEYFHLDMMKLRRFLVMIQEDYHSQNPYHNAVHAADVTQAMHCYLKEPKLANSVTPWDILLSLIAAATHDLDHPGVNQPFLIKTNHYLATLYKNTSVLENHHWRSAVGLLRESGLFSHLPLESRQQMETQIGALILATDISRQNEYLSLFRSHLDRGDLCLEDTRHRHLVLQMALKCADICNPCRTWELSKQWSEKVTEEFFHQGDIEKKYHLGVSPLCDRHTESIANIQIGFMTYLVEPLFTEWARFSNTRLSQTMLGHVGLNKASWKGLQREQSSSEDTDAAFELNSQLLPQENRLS
In assay [11] the target is T3, 3',5'-cyclic-AMP phosphodiesterase 4D (Homo sapiens, UniProt Q08499). Description: Inhibition of PDE4D (unknown origin) at 2 uM relative to control.
T3 sequence (Q08499 whole entry): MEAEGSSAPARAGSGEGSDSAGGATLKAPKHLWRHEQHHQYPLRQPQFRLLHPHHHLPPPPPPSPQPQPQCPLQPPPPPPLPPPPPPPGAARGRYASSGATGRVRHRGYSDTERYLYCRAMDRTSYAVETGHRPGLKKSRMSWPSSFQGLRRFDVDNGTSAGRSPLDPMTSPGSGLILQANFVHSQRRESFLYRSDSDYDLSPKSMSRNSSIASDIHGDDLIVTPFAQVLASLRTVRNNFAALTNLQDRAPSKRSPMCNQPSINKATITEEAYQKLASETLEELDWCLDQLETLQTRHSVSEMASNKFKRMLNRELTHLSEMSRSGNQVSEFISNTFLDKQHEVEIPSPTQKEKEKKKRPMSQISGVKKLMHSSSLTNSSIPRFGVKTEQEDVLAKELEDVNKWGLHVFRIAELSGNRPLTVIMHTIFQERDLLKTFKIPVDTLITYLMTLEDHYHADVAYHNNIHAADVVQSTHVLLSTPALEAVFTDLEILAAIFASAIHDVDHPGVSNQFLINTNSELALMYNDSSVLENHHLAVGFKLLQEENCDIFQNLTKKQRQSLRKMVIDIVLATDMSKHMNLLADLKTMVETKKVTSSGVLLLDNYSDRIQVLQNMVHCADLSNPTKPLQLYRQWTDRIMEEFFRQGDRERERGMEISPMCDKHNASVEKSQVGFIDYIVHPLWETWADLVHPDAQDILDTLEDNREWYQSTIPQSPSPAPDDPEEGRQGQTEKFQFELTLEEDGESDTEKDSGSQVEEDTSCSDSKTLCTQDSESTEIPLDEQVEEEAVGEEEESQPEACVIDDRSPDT
Assay [12] concerns the target T4, 3',5'-cyclic-AMP phosphodiesterase 4A (Homo sapiens, UniProt P27815). Description: Inhibition of PDE4A (unknown origin) at 2 uM relative to control.
Assay [13] deals with T3, 3',5'-cyclic-AMP phosphodiesterase 4D. Description: Inhibition of PDE4D3 (unknown origin).
Assay [14] addresses T2, 3',5'-cyclic-AMP phosphodiesterase 4B. Description: Inhibition of recombinant human PDE4B catalytic domain expressed in baculovirus infected sf9 cells using 3H-cAMP as substrate incubated for 20 mins by scintillation counting method.
The target of assay [15] is cGMP-inhibited 3',5'-cyclic phosphodiesterase 3A (Homo sapiens, UniProt Q14432). Description: Inhibition of recombinant human PDE3A catalytic domain expressed in baculovirus infected sf9 cells using 3H-cAMP as substrate incubated for 20 mins by scintillation counting method.
Sequence of cGMP-inhibited 3',5'-cyclic phosphodiesterase 3A (Q14432 whole entry, the tested form may be a part): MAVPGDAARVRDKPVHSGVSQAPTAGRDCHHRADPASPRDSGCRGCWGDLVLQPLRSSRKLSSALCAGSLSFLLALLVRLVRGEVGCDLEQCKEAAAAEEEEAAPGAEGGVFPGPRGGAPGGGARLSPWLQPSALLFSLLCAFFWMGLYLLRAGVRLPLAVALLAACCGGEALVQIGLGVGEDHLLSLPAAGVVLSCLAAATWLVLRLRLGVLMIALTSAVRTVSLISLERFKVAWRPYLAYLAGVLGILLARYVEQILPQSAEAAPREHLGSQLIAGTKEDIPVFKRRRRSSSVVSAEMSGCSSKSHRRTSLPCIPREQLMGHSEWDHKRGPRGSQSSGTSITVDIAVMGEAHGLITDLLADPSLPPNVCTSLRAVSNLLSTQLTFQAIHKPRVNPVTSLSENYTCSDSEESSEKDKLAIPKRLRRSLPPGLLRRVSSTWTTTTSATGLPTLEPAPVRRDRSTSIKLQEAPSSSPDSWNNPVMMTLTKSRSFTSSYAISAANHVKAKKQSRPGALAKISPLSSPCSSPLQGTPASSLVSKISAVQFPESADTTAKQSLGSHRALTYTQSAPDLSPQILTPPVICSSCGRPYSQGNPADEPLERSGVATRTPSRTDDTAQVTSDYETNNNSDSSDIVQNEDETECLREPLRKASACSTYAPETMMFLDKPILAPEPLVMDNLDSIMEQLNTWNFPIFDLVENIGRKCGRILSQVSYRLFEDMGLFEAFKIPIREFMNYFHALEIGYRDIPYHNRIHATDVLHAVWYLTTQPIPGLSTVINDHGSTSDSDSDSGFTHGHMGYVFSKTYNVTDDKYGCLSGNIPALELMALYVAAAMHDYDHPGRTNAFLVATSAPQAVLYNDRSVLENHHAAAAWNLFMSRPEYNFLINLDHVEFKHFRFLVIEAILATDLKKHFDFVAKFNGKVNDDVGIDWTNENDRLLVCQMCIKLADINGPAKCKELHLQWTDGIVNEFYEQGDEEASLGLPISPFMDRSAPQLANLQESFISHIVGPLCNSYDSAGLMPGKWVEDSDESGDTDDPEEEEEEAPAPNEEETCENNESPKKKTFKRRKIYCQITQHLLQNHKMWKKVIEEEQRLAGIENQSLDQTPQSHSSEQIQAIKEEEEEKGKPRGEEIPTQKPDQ
In assay [16] the target is T2, 3',5'-cyclic-AMP phosphodiesterase 4B. Description: Inhibition of recombinant human PDE4B2 using cAMP as substrate preincubated for 5 mins followed by substrate addition and measured after 60 mins by luminescence method.
The nature of assay [17]: Inhibition of TNFalpha in mouse model of sepsis. The class given is functional.
For assay [18], the target named is T1, Phosphodiesterase 4. Description: Inhibition of human U-937 cell derived PDE4 using [3H]-cAMP or [3H]-cGMP as substrate incubated for 60 mins by scintillation proximity assay. It counts as protein assay.
For assay [19], the target named is T2, 3',5'-cyclic-AMP phosphodiesterase 4B. Description: Inhibition of full length human PDE4B2 expressed in baculovirus infected Sf9 cell expression system preincubated for 10 mins followed by cAMP addition and measured after 30 mins by fluorescence method.
Assay [20] has as its target T3, 3',5'-cyclic-AMP phosphodiesterase 4D. Description: Inhibition of full length human PDE4D2 preincubated for 10 mins followed by cAMP addition and measured after 30 mins by fluorescence method.
Assay [21] addresses T4, 3',5'-cyclic-AMP phosphodiesterase 4A. Description: Inhibition of PDE4A (unknown origin).
Assay [22] concerns the target T3, 3',5'-cyclic-AMP phosphodiesterase 4D. Description: Inhibition of PDE4D (unknown origin).
Assay [23] deals with T2, 3',5'-cyclic-AMP phosphodiesterase 4B. Description: Inhibition of PDE4B (unknown origin).
The target of assay [24] is T1, Phosphodiesterase 4. Description: Inhibition of PDE4 in human U937 cell lysate using cAMP as substrate by LANCE assay. It counts as subcellular. The conditions noted are these: u-937.
The target in assay [25] is T3, 3',5'-cyclic-AMP phosphodiesterase 4D. Description: Inhibition of human PDE4D2 catalytic domain (86 to 413 residues) expressed in Escherichia coli BL21 cells using 3H-cGMP or 3H-cAMP as substrate by liquid scintillation counting method.

T4 sequence (P27815 whole entry): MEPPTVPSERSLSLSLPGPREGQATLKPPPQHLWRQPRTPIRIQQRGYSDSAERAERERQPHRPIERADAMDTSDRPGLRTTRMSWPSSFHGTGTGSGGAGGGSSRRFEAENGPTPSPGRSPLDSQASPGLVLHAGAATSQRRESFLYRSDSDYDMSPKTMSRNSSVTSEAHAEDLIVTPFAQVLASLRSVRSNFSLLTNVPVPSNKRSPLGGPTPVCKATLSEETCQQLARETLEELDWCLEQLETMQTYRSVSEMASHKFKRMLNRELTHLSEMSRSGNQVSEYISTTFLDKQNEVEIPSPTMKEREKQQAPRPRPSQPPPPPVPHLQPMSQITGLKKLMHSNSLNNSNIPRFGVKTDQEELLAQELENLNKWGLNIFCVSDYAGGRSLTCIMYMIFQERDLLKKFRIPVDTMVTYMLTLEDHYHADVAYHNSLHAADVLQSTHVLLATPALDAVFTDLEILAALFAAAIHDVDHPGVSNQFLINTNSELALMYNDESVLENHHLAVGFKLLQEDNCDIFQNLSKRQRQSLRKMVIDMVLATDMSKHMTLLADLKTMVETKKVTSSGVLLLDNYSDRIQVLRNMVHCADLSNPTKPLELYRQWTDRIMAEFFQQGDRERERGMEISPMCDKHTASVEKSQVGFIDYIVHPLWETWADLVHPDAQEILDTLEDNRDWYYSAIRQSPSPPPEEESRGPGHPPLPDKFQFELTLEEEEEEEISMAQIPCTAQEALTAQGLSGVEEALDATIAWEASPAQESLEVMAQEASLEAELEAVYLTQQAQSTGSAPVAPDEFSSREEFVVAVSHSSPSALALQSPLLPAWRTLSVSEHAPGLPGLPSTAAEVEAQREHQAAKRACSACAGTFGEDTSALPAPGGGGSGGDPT
Sequence of 3',5'-cyclic-AMP phosphodiesterase 4C (Q08493 whole entry): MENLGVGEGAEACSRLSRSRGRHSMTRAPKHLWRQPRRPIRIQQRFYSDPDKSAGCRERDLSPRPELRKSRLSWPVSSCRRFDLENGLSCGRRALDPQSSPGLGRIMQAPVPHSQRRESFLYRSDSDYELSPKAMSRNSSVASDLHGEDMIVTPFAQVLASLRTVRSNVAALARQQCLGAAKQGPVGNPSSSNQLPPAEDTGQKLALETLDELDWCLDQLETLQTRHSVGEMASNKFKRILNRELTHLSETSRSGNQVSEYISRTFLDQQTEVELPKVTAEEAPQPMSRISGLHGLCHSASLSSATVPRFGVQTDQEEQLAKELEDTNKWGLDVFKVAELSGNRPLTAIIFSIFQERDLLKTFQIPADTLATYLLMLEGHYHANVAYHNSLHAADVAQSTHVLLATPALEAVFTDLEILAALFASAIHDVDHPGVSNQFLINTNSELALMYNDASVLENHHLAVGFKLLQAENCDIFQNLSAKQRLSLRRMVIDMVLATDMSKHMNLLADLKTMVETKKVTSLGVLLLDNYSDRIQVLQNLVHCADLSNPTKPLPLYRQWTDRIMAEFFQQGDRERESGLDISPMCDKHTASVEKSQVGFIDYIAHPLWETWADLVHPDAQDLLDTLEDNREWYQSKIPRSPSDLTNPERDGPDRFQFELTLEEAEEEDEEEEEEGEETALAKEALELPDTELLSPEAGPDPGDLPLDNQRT

In [1], `COc1cc2c(cc1OC)-c1c/c(=N\c3c(C)cc(C)cc3C)n(CCNC(N)=O)c(=O)n1CC2` [ENSIFENTRINE] had an Activity greater than 15%. `COc1cc2c(cc1OC)[C@@H]1CN(C)CC[C@@H]1N=C2c1ccc(NC(C)=O)cc1` [BENAFENTRINE]: the half-inhibitory concentration (IC50) in assay [2] was 1740 nM; in assay [3], 1760 nM.

`COc1ccc(C2=NN(C3CCN(S(=O)(=O)c4ccccc4C)CC3)C(=O)C(C)(C)C2)cc1OC`: the pIC50 at Phosphodiesterase 4 [4] is 9.45.

`O=C(NC1CC1)c1cn(-c2cccc(-c3ccc([C@@H]4C[C@H]4C(=O)O)c(F)c3)c2)c2ncccc2c1=O`: the half-maximal inhibitory concentration (IC50) on Phosphodiesterase 4 [4] worked out at 0.6 nM. Regarding `CCOc1cc(C(CS(C)(=O)=O)N2C(=O)c3csc(NC(C)=O)c3C2=O)ccc1OC` (stereo unspecified), the 50% inhibitory concentration (IC50) in assay [5] is 26 nM. Turning to `COc1ccc(C2=NN(CCCCCc3ccccc3)C(=O)CC2)cc1OC`, the IC50 in assay [6] stood at 0.9 nM. For `CCOc1cc([C@H](CS(C)(=O)=O)N2C(=O)c3cccc(NC(=O)OCCOCCOCCOCCOCCOCCOCCOC)c3C2=O)ccc1OC`, the IC50 in assay [7] and in [8] was 3 nM in each case. As to `Cc1c(C(=O)Nc2ccc(F)cc2F)sc2ncnc(N3CCN(C)CC3)c12`, the inhibition was found to be 64% in assay [9], 98% in assay [10], 64% in assay [11] and 64% in [12].

On Phosphodiesterase 4 [4], `O=C(Nc1c(Cl)cncc1Cl)C(=O)c1cn(Cc2ccc(F)cc2)c2ncccc12` [ELBIMILAST] showed an IC50 of 3 nM. As to `COc1ccc([C@H]2CNC(=O)[C@H](Cc3cccc(C)c3)C2)cc1OC1CCCC1` [HT-0712], the IC50 in assay [13] was 150 nM. Take `O=C(Nc1c(Cl)c[n+]([O-])cc1Cl)c1ccc(OC(F)F)c2oc3ccncc3c12`: the concentration for half-maximal inhibition (IC50) at Phosphodiesterase 4 [4] is reported as 3 nM.

For `COC1=CC=C(C2=NN(CCCCCOc3ccc(C4=NNC(=O)CC4C)cc3)C(=O)CC2C)C2CC(C(F)(F)F)=NN12` (stereo unspecified), the IC50 in assay [14] stood at 42 nM; in assay [15], 360 nM. In the case of `CCOc1ccc(-c2nc(-c3cccc(C(=O)O)n3)cs2)cc1OCC` [TETOMILAST], the IC50 at Phosphodiesterase 4 [4] is listed as 74 nM.

Regarding `COc1cccc(Nc2c(C(N)=O)ccc3c(C)cc(S(=O)(=O)c4cccc(C(=O)Nc5ccc(C#CCCCNC[C@@H](O)c6ccc(O)c7[nH]c(=O)ccc67)cc5)c4)cc23)c1`, in assay [16], the IC50 was found to be 5 nM.

On to `NS(=O)(=O)c1cccc(-c2c(-c3ccccc3)nc(C(F)(F)F)nc2N2CCOCC2)c1`, for which the EC50 in [17] worked out at 0.01 mg/kg. Also, the IC50 against Phosphodiesterase 4 [4] worked out at 7 nM. On Phosphodiesterase 4 [18], `CNc1nc(-c2cccc(NC(=O)c3ccc(C(=O)OC)cc3)c2)c2cc(OC)c(OC)cc2n1` [LOTAMILAST] yielded a half-inhibitory concentration (IC50) of 2.8 nM. On to `COc1ccc(-c2nc3c(c(Nc4ccc(CC(=O)O)cc4)n2)SCCC3)cc1F`, for which the half-maximal inhibitory concentration (IC50) was found to be 5.5 nM in assay [19] and 440 nM in [20]. Turning to `COc1ccc(C(Cc2c(Cl)cncc2Cl)OC(=O)c2ccc(OC(F)F)c(OCC3CC3)c2)cc1OC` (stereo unspecified), at Phosphodiesterase 4 [4], the IC50 was 0.2 nM. Consider `Cc1ccc(O)c(C(=O)N[C@H]2CC[C@@H](NC(=O)c3cc(F)cnc3Oc3ccc(F)c(F)c3)CC2)c1` [UK-500001], for which the concentration for half-maximal inhibition (IC50) in assay [21], in assay [22] and in [23] was 0.38 nM each time. Regarding `CS(=O)(=O)Nc1ccc(C(=O)O[C@@H](Cc2c(Cl)c[n+]([O-])cc2Cl)c2ccc(OC(F)F)c(OCC3CC3)c2)cc1OCC1CC1`, on Phosphodiesterase 4 [24], the IC50 amounted to 0.026 nM. On to `COc1ccc([C@@]2(c3cccc(OC)c3)c3cc(O)ccc3-c3ccc(C=O)c(C#Cc4ccc(O)cc4)c32)cc1`, for which, in [25], the IC50 was found to be 11 nM.

The values are drawn from ChEMBL document CHEMBL4725222, “Advances in the Development of Phosphodiesterase-4 Inhibitors” (J Med Chem, 2020).
